Data reported in patent EP1975177B1, “An appetite-suppressing peptide, its compositions and use” (Novo Nordisk A/S, priority 1996, dated 2011).
Where a SMILES comes first, the peptide text is derived from it.

Experiments:
mice = experiment: Appetite suppression in mice, consumption of 20% sucrose solution; type: in vivo; details: intraperitoneal injection, 50 micrograms, in phosphate buffered saline
Method: Mice were deprived of their normal feed for two days and given free access to a 20% sucrose solution on the first day of feed deprivation. After the 2-day feed deprivation period, mice were injected intraperitoneally with 0.5ml of a solution containing the test substance. Thirty minutes after injection, individual mice were placed in one of eight 15 cm^2 test box with a stainless steel grid floor and a glass drinking tube which projected into the box. The drinking tube was connected to a reservoir containing a 20% sucrose solution, and the interior of the drinking tube contained an electrode enabling the detection of drinking contacts with the solution by measuring the flow of a weak (unnoticeable) electric current through mice by means of an electronic apparatus connected to the drinking tube electrode and the stainless steel grid floor. Consumption of the sucrose solution was measured over a 10 minute period by electronically recording the total amount of contact with the sucrose solution during the test session. The degree of appetite suppression produced by a given test substance was determined by statistical comparison of the duration of sucrose consumption by control (vehicle treated) mice with that of mice treated with a test substance. The degree of appetite suppression in a treated group of mice was expressed as percent of the control groups response. […]

fasted rats = details: cited from earlier work

CC[C@H](C)[C@H](NC(=O)[C@H](Cc1ccccc1)NC(=O)[C@H](CC(=O)O)NC(=O)[C@H](CCCNC(=N)N)NC(=O)[C@@H](NC(=O)[C@H](C)NC(=O)[C@H](CC(C)C)NC(=O)[C@H](CC(N)=O)NC(=O)[C@H](CC(=O)O)NC(=O)[C@H](CC(C)C)NC(=O)[C@@H](NC(=O)[C@@H](NC(=O)[C@H](CC(N)=O)NC(=O)[C@H](CCSC)NC(=O)[C@H](CCC(=O)O)NC(=O)[C@H](CC(=O)O)NC(=O)[C@H](CO)NC(=O)[C@H](Cc1ccccc1)NC(=O)[C@H](CO)NC(=O)CNC(=O)[C@H](CC(=O)O)NC(=O)[C@H](C)NC(=O)[C@@H](N)Cc1c[nH]cn1)[C@@H](C)O)C(C)C)[C@@H](C)O)C(=O)N[C@@H](CC(N)=O)C(=O)N[C@@H](Cc1c[nH]c2ccccc12)C(=O)N[C@@H](CC(C)C)C(=O)N[C@@H](CC(C)C)C(=O)N[C@@H](Cc1c[nH]cn1)C(=O)N[C@H](C(=O)N[C@@H](CCCCN)C(=O)N[C@H](C(=O)N[C@H](C(=O)N[C@@H](CC(=O)O)C(=O)O)[C@@H](C)O)[C@@H](C)CC)[C@@H](C)O [synthetic porcine GLP-2, porcine GLP-2] (H-HADGSFSDEMNTVLDNLATRDFINWLLHTKITD-OH)
suppressed sucrose consumption (mice): 38%

GLP-1
feeding (fasted rats; fasted rats, intracerebroventricular (ICV) administration): inhibited feeding | effect on feeding behaviour (fasted rats; peripheral administration): no effect on feeding behaviour

Glucagon
effect on food intake (fasted rats; fasted rats, intraperitoneal administration of pharmacological doses): no effect on food intake
